Measured values reported in US20110136762A1, “FUNGICIDAL PYRIDAZINES” (E.I. Du Pont de Nemours and Company, priority 2008, published 2011).
Marks after values point to notes of the source that are not given here.

What was measured:
Type in all cases: in vivo
Erysiphe graminis = assay: Test A: wheat powdery mildew, preventive spray on wheat seedlings, visual disease rating; settings: 100 = 100% disease control, 0 = no disease control relative to controls; for pest or weed control at 40 ppm: Blumeria graminis, 192 h
Text: General protocol for preparing test suspensions for Tests A-F: […] The resulting test suspensions were then used in Tests A-F. The test suspensions were sprayed to the point of run-off on the test plants. All results are for 200 ppm (equivalent to a rate of 500 g/ha) except where followed by “*” which indicates 40 ppm. The test suspension was sprayed to the point of run-off on wheat seedlings. The following day the seedlings were inoculated with a spore dust of Erysiphe graminis, (the causal agent of wheat powdery mildew) and incubated in a growth chamber at 20° C. for 8 days, after which time visual disease ratings were made. […] A dash (-) indicates no test results. All results are for 200 ppm except where followed by “*”, which indicates 40 ppm.

[1] = system: Puccinia recondita f. sp. tritici; assay: Test B: wheat leaf rust, preventive spray on wheat seedlings, visual disease rating; settings: 100 = 100% disease control, 0 = no disease control relative to controls; for pest or weed control at 40 ppm: 192 h
Text: General protocol for preparing test suspensions for Tests A-F: […] The resulting test suspensions were then used in Tests A-F. The test suspensions were sprayed to the point of run-off on the test plants. All results are for 200 ppm (equivalent to a rate of 500 g/ha) except where followed by “*” which indicates 40 ppm. The test suspension was sprayed to the point of run-off on wheat seedlings. The following day the seedlings were inoculated with a spore suspension of Puccinia recondita f. sp. tritici (the causal agent of wheat leaf rust) and incubated in a saturated atmosphere at 20° C. for 24 h, and then moved to a growth chamber at 20° C. for 7 days, after which time visual disease ratings were made. […] A dash (-) indicates no test results. All results are for 200 ppm except where followed by “*”, which indicates 40 ppm.

Septoria tritici = assay: Test C: wheat leaf blotch, preventive spray on wheat seedlings, visual disease rating; settings: 100 = 100% disease control, 0 = no disease control relative to controls; for pest or weed control at 40 ppm: Zymoseptoria tritici, 504 h
Text: General protocol for preparing test suspensions for Tests A-F: […] The resulting test suspensions were then used in Tests A-F. The test suspensions were sprayed to the point of run-off on the test plants. All results are for 200 ppm (equivalent to a rate of 500 g/ha) except where followed by “*” which indicates 40 ppm. The test suspension was sprayed to the point of run-off on wheat seedlings. The following day the seedlings were inoculated with a spore suspension of Septoria tritici (the causal agent of wheat leaf blotch) and incubated in saturated atmosphere at 20° C. for 48 h, and moved to a growth chamber at 20° C. for 19 additional days, after which time visual disease ratings were made. […] A dash (-) indicates no test results. All results are for 200 ppm except where followed by “*”, which indicates 40 ppm.

Septoria nodorum = assay: Test D: wheat glume blotch, preventive spray on wheat seedlings, visual disease rating; settings: 100 = 100% disease control, 0 = no disease control relative to controls
Text: General protocol for preparing test suspensions for Tests A-F: […] The resulting test suspensions were then used in Tests A-F. The test suspensions were sprayed to the point of run-off on the test plants. All results are for 200 ppm (equivalent to a rate of 500 g/ha) except where followed by “*” which indicates 40 ppm. The test suspension was sprayed to the point of run-off on wheat seedlings. The following day the seedlings were inoculated with a spore suspension of Septoria nodorum (the causal agent of wheat glume blotch) and incubated in a saturated atmosphere at 20° C. for 48 h, and then moved to a growth chamber at 20° C. for 7 days, after which time visual disease ratings were made. […] A dash (-) indicates no test results. All results are for 200 ppm except where followed by “*”, which indicates 40 ppm.

Alternaria solani = assay: Test E: tomato early blight, preventive spray on tomato seedlings, visual disease rating; settings: 100 = 100% disease control, 0 = no disease control relative to controls
Text: General protocol for preparing test suspensions for Tests A-F: […] The resulting test suspensions were then used in Tests A-F. The test suspensions were sprayed to the point of run-off on the test plants. All results are for 200 ppm (equivalent to a rate of 500 g/ha) except where followed by “*” which indicates 40 ppm. The test suspension was sprayed to the point of run-off on tomato seedlings. […] A dash (-) indicates no test results. All results are for 200 ppm except where followed by “*”, which indicates 40 ppm.

Botrytis cinerea = assay: Test F: tomato Botrytis, preventive spray on tomato seedlings, visual disease rating; settings: 100 = 100% disease control, 0 = no disease control relative to controls
Text: General protocol for preparing test suspensions for Tests A-F: […] The resulting test suspensions were then used in Tests A-F. The test suspensions were sprayed to the point of run-off on the test plants. All results are for 200 ppm (equivalent to a rate of 500 g/ha) except where followed by “*” which indicates 40 ppm. The test suspension was sprayed to the point of run-off on tomato seedlings. The following day the seedlings were inoculated with a spore suspension of Botrytis cinerea (the causal agent of tomato Botrytis) and incubated in saturated atmosphere at 20° C. for 48 h, and then moved to a growth chamber at 24° C. for 3 days, after which time visual disease ratings were made. […] A dash (-) indicates no test results. All results are for 200 ppm except where followed by “*”, which indicates 40 ppm.

[2] = Parastagonospora nodorum, 40 ppm (marked *)
[3] = Alternaria solani, 40 ppm (marked *)
[4] = Botrytis cinerea, 40 ppm (marked *)

| Compound | pest or weed control at 40 ppm (Erysiphe graminis; 40 ppm (marked *)) [%] | pest or weed control at 40 ppm ([1]; 40 ppm (marked *)) [%] | pest or weed control at 40 ppm (Septoria tritici; 40 ppm (marked *)) [%] | pest or weed control at 40 ppm (Septoria nodorum; [2]) [%] | pest or weed control at 40 ppm (Alternaria solani; [3]) [%] | pest or weed control at 40 ppm (Botrytis cinerea; [4]) [%] | Test A rating (disease control, wheat powdery mildew) (Erysiphe graminis; 40 ppm (marked *)) | Test B rating (disease control, wheat leaf rust) ([1]; 40 ppm (marked *)) | Test C rating (disease control, wheat leaf blotch) (Septoria tritici; 40 ppm (marked *)) | Test D rating (disease control, wheat glume blotch) (Septoria nodorum; 40 ppm (marked *)) | Test E rating (disease control, tomato early blight) (Alternaria solani; 40 ppm (marked *)) | Test F rating (disease control, tomato Botrytis) (Botrytis cinerea; 40 ppm (marked *)) | further results |
| --- | --- | --- | --- | --- | --- | --- | --- | --- | --- | --- | --- | --- | --- |
| COc1cc(OC)c(Cl)c(-c2c(-c3ccccc3F)nnc(C)c2-c2c(F)cc(F)cc2F)c1 [Compound 31, 4-(2-chloro-3,5-dimethoxyphenyl)-3-(2-fluorophenyl)-6-methyl-5-(2,4,6-trifluorophenyl)pyridazine] | 97 | 100 | 99 | 100 | 100 | 100 | – | – | – | – | – | – | – |
| COc1cc(OC)c(Br)c(-c2c(-c3ccccc3F)nnc(C)c2-c2c(F)cc(F)cc2F)c1 [Compound 32] | – | – | – | – | – | – | 90* % | 100* % | 98* % | 99* % | 99* % | 100* % | – |
| COc1cc(-c2c(-c3ccccc3F)nnc(C)c2-c2c(F)cc(F)cc2F)cc(OC)c1Cl [Compound 33] | – | – | – | – | – | – | 0* % | 97* % | 95* % | 0* % | 61* % | 99* % | – |
| COc1cc(OC)cc(-c2c(-c3ccccc3)nnc(Cl)c2-c2c(F)cc(F)cc2F)c1 [Compound 34] | – | – | – | – | – | – | – | – | – | – | – | – | Test A rating (disease control, wheat powdery mildew) (Erysiphe graminis; 200 ppm): 99%; Test B rating (disease control, wheat leaf rust) ([1]; 200 ppm): 100%; Test C rating (disease control, wheat leaf blotch) (Septoria tritici; 200 ppm): 100%; Test D rating (disease control, wheat glume blotch) (Septoria nodorum; 200 ppm): 93%; Test E rating (disease control, tomato early blight) (Alternaria solani; 200 ppm): 99%; Test F rating (disease control, tomato Botrytis) (Botrytis cinerea; 200 ppm): 100% |
| COc1cc(OC)cc(-c2c(-c3ccccc3)nnc(C)c2-c2c(F)cc(F)cc2F)c1 [Compound 35, 4-(3,5-dimethoxyphenyl)-6-methyl-3-phenyl-5-(2,4,6-trifluorophenyl)pyridazine] | 90 | 100 | 100 | – | – | – | – | – | – | – | – | – | pest or weed control at 200 ppm (Septoria nodorum; Parastagonospora nodorum, 200 ppm): 95%; pest or weed control at 200 ppm (Alternaria solani; Alternaria solani, 200 ppm): 99%; pest or weed control at 200 ppm (Botrytis cinerea; Botrytis cinerea, 200 ppm): 99% |
| COc1cc(OC)c(Cl)c(-c2c(-c3ccccc3)nnc(C)c2-c2c(F)cc(F)cc2F)c1 [Compound 36, 4-(2-chloro-3,5-dimethoxyphenyl)-6-methyl-3-phenyl-5-(2,4,6-trifluorophenyl)pyridazine] | 98 | 99 | 99 | 100 | 99 | 99 | – | – | – | – | – | – | – |
| COc1cc(OC)cc(-c2c(-c3ccccc3)nnc(C)c2-c2c(F)cc(OC)cc2F)c1 [Compound 37, 5-(2,6-difluoro-4-methoxyphenyl)-4-(3,5-dimethoxyphenyl)-6-methyl-3-phenylpyridazine] | 69 | 100 | 98 | 99 | 99 | 99 | – | – | – | – | – | – | – |
| COc1cc(OC)cc(-c2c(-c3ccccc3F)nnc(Cl)c2-c2c(F)cc(F)c([Si](C)(C)C)c2F)c1 [Compound 38, 3-chloro-5-(3,5-dimethoxyphenyl)-6-(2-fluorophenyl)-4-[2,4,6-trifluoro-3-(trimethylsilyl)phenyl]pyridazine] | 0 | 98 | 94 | 0 | 26 | 99 | – | – | – | – | – | – | – |
| Fc1cncc(-c2c(-c3ccccc3F)nnc(Cl)c2-c2c(F)cc(F)cc2F)c1 [Compound 39] | – | – | – | – | – | – | 100* % | 100* % | 100* % | 100* % | 100* % | 100* % | – |
